Values quoted from earlier work as cited in US20240016871A1, “Non-toxic furocoumarin-rich plant extracts and related compositions for use as antimicrobial substance or medicament and other therapeutic uses” (ICE-P LIFE, S.L., priority 2020, published 2024).

Assays:
[1] = system: p53 knockout mouse; conditions: platelets treated with amotosalen, after filtration and removal of amotosalen conjugated with pathogens
[2] = system: DBA/2 strain mice; conditions: single oral doses

Row | SMILES | carcinogenicity [1] | liver necrosis [2]
1 | Cc1oc2c(C)c3oc(=O)cc(C)c3cc2c1COCCN.Cl [amotosalen, amotosalen HCl] | non-carcinogenic | 
2 | O=c1ccc2ccccc2o1 [coumarin] |  | produce liver necrosis
